Earlier results in patent US20180280562A1, “Fibrous Structures Comprising Sensates” (The Procter & Gamble Company, priority 2017, published 2018).

Settings: concentration where the cooling effect could be clearly recognized

Compound	cooling threshold
CC(C)[C@@H]1CC[C@@H](C)C[C@H]1O [L-menthol]	about 800 ppb
CC(C)[C@@H]1CC[C@@H](C)C[C@@H]1O [d-neomenthol]	about 25,000 ppb
CC(C)[C@@H]1CC[C@@H](C)C[C@@H]1O [1-neomenthol]	about 3,000 ppb
